According to ChEMBL document CHEMBL1201862, “PubChem BioAssay data set” (2004):
Calls of active or inactive are those of the source.

Legend:
[1] = target: T1, RNA-binding protein pos-1 (Caenorhabditis elegans, UniProt G5EF15); experiment: inhibitors of POS-1/mex-3 RNA binding, dose response, biochemical, fluorescence polarization (AID 1964);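 note: purified POS-1 fused to maltose binding protein made in E. coli; potency of compounds blocking POS-1 binding to fluorescent RNA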
T1 sequence (G5EF15 whole entry): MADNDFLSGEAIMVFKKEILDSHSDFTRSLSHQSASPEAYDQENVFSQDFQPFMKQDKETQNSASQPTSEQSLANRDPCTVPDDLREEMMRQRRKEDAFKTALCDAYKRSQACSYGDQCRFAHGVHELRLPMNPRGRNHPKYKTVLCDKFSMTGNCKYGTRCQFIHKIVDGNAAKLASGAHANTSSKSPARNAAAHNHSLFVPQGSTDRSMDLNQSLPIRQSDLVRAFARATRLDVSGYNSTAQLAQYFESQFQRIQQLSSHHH

[2] = target: Ubiquitin carboxyl-terminal hydrolase BAP1 (Homo sapiens, UniProt Q92560); experiment: BAP1 deubiquitinase inhibitors, dose response, biochemical (AID 714); format: functional
[3] = target: T2, Zinc finger protein mex-5 (Caenorhabditis elegans, UniProt Q9XUB2); experiment: MEX-5/TCR-2 RNA interaction inhibitors, dose response, biochemical, C. elegans, fluorescence polarization (AID 1960)
T2 sequence (Q9XUB2 whole entry): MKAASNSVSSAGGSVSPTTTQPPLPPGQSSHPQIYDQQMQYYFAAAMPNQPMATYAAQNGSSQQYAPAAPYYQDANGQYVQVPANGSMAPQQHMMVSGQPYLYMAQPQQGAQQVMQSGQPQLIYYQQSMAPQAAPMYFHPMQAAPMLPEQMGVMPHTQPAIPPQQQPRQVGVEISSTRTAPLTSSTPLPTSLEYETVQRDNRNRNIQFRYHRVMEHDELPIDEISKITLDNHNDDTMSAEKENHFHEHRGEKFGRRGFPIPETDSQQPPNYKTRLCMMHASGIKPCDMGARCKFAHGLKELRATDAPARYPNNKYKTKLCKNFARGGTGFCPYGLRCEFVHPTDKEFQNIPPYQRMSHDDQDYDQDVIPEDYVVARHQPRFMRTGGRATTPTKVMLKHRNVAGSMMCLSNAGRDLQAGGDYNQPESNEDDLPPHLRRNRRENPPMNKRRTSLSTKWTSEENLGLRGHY

[4] = target: E3 ubiquitin-protein ligase Mdm2 (Homo sapiens, UniProt Q00987); experiment: enhancers of MDM2-luciferase reporter signal, concentration-effect titration, project on inhibitors of MDM2 ubiquitin ligase, cellular assay, luminescent readout, 384-well plate format (AID 1394); format: functional;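 note: MDM2 E3 inhibitors raise luminescence so EC50 is for signal enhancement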
BJ [5] = experiment: cytotoxicity toward BJ-TERT fibroblasts, dose response, cell-based, RAS-independent, luminescence (AID 1933); format: functional; settings: Homo sapiens
BJ [6] = experiment: cells; format: functional, cell-based; settings: Homo sapiens
[7] = cytotoxicity toward DRD oncogenic fibroblasts, dose response, cell-based, non-viral oncogenic, luminescence (AID 1934); format: functional; settings: Homo sapiens
[8] = target: T3, Replicative DNA helicase DnaB (Mycobacterium tuberculosis, UniProt P9WMR3); experiment: DnaB intein splicing inhibitors, dose response, biochemical, cell-free fluorescence (AID 449749); format: functional
T3 sequence (P9WMR3 whole entry): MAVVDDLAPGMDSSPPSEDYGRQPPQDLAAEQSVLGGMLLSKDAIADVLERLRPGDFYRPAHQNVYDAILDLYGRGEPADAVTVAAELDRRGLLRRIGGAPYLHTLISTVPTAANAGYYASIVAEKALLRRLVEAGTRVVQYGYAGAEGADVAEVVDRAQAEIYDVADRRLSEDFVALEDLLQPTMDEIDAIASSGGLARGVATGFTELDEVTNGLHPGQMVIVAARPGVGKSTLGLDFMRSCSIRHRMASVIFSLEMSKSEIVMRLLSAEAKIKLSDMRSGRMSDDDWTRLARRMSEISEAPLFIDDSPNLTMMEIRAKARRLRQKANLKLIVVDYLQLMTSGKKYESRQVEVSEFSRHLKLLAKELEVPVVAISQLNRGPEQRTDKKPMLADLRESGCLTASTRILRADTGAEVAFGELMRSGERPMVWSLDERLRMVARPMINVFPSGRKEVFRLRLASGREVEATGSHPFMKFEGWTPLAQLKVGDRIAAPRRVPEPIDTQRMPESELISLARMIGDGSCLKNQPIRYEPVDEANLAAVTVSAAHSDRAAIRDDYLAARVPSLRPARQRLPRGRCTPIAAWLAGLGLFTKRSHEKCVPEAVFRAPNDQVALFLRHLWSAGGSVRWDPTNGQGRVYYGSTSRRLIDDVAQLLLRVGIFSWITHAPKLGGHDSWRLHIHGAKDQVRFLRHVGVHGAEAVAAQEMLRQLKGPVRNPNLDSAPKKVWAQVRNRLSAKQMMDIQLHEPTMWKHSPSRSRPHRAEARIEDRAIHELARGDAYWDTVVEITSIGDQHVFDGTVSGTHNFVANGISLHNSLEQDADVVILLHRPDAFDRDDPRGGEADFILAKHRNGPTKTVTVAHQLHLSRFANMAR

Protein RecA = target: T4, Protein RecA (Mycobacterium tuberculosis, UniProt P9WHJ3); experiment: Fluorescence Cell-Free Homogeneous Dose Retest to Identify Inhibitors of RecA-Intein Splicing Activity. [Related pubchem assays (depositor defined):AID2097, AID2223, AID489010, AID492950]; format: functional
T4 sequence (P9WHJ3 whole entry): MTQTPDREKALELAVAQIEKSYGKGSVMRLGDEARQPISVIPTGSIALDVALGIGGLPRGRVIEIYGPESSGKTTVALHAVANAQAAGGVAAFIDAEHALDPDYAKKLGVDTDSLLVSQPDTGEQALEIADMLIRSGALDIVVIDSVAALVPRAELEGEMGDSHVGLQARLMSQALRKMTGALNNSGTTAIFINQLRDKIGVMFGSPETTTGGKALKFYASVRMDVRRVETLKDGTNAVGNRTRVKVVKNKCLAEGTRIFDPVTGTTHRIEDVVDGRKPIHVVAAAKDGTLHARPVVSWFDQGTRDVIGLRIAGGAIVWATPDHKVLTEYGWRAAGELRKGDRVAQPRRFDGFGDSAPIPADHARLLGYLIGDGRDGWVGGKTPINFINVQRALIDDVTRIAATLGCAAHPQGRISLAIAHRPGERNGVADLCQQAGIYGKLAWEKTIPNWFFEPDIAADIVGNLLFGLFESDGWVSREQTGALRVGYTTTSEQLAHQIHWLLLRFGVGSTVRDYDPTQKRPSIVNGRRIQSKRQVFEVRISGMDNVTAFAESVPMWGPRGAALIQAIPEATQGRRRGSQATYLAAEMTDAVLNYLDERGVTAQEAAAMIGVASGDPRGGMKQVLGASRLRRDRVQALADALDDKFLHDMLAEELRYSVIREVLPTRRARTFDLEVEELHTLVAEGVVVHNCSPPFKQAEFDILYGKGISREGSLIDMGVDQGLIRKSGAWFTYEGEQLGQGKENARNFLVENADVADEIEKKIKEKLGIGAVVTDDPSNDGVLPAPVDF

[9] = target: T5, Calpain-2 catalytic subunit (Sus scrofa, UniProt P43367); experiment: pig calpain II inhibitor potency, dose response, biochemical, fluorogenic peptide substrate (AID 1420); format: functional
T5 sequence (P43367 whole entry): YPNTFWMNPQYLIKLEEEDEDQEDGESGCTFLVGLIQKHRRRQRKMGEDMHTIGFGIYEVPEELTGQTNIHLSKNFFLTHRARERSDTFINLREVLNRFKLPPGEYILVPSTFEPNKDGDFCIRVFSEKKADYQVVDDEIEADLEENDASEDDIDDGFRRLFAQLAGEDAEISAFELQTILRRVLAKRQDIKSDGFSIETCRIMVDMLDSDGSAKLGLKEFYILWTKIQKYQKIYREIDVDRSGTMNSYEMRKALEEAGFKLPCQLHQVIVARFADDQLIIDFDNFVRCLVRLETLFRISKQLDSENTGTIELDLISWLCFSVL

[10] = Vero cell cytotoxicity, dose response, cytotoxicity control for Vif-APOBEC3G degradation inhibitor project, Vero cells (AID 1117358); format: functional; settings: Human immunodeficiency virus 1, Vero
[11] = target: T6, Tyrosine-protein phosphatase non-receptor type 7 (Homo sapiens, UniProt P35236); experiment: inhibitors of human HePTP phosphatase, […], biochemical, absorbance, leukemia target (AID 521); format: functional
T6 sequence (P35236 whole entry): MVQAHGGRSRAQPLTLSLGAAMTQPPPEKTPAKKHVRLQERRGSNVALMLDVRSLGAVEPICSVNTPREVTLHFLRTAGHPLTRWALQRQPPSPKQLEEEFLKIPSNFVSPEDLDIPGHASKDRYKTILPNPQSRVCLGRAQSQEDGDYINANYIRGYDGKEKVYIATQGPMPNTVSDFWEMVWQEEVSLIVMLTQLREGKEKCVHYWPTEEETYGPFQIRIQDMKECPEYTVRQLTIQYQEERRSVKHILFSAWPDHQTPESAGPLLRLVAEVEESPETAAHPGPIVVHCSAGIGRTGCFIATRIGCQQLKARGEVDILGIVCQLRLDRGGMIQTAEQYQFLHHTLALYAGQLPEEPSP

[12] = P. falciparum Dd2 growth inhibitors, dose response, SYBR Green, cherry-picked samples (AID 1159567); format: functional, cell-based
[13] = HepG2 cell cytotoxicity, dose response, cytotoxicity control, cherry-picked samples (AID 1159577); format: functional, cell-based
[14] = target: T7, Low molecular weight phosphotyrosine protein phosphatase (Homo sapiens, UniProt P24666); experiment: LMPTP phosphatase inhibitors, dose response, biochemical, OMFP substrate, fluorescence intensity, set 2 (AID 743307); format: functional
T7 sequence (P24666 whole entry): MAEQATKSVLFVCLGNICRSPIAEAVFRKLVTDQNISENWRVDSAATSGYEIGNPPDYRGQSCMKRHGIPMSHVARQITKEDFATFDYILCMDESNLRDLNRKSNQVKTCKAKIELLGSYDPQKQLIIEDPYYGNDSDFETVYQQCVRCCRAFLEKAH

[15] = target: T7, Low molecular weight phosphotyrosine protein phosphatase; experiment: LMPTP phosphatase inhibitors, colorimetric pNPP readout, dose response, orthogonal assay, biochemical, absorbance, pNPP substrate, LMPTP-A isoform, set 2 (AID 743308); format: functional
Phospholipase D2 = Phospholipase D2 (Homo sapiens, UniProt O14939); experiment: PLD2 Cellular Concentration Response Study.; format: functional
Phospholipase D1 = Phospholipase D1 (Homo sapiens, UniProt Q13393); experiment: PLD1 Cellular Concentration Response Study.; format: functional
[16] = P. falciparum 3D7-ScDHODH growth inhibitors, dose response, SYBR Green, dry powder samples (AID 1159570); format: functional, cell-based;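 note: parasite growth measured after 72 hours of compound exposure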
[17] = P. falciparum Dd2 blood-stage growth inhibition, dose response, SYBR Green fluorescence, erythrocytes, dry powder, set 2 (AID 1159574); format: functional, cell-based
[18] = P. falciparum Dd2 growth inhibitors, dose response, SYBR Green, dry powder samples (AID 1159566); format: functional, cell-based;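 note: potency for growth inhibition with lower SYBR green DNA signal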
[19] = P. falciparum ATP4 D1247Y mutant growth inhibitors, dose response, NITD609-resistant line, SYBR Green, dry powder (AID 1159571); format: functional, cell-based;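 note: parasites synchronized at ring stage by sorbitol before testing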
[20] = half-maximal inhibitory concentration for glucagon-like peptide-1 release, STC-1 cell line, dose-response (AID 1117345); format: functional, cell-based
[21] = Glucagon-like peptide 1 release potency, NCI-H716 cell line, dose-response, half-maximal inhibitory concentration (AID 1117344); format: functional, cell-based
[22] = target: G-protein coupled receptor 183 (Homo sapiens, UniProt P32249); experiment: SAR confirmation of small molecule antagonists of the EBI2 receptor via a luminescent beta-arrestin assa.; format: functional
G-protein coupled receptor 183, sequence (P32249 whole entry): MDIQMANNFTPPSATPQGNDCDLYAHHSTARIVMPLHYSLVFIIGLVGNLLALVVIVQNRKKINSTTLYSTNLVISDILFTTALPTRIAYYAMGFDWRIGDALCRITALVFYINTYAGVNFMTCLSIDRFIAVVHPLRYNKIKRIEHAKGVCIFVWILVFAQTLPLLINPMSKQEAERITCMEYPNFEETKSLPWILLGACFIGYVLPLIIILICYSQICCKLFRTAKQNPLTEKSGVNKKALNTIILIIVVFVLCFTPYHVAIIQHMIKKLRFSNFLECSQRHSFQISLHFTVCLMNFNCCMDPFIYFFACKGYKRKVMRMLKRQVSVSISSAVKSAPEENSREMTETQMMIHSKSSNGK

Phospholipase D1, sequence (Q13393 whole entry): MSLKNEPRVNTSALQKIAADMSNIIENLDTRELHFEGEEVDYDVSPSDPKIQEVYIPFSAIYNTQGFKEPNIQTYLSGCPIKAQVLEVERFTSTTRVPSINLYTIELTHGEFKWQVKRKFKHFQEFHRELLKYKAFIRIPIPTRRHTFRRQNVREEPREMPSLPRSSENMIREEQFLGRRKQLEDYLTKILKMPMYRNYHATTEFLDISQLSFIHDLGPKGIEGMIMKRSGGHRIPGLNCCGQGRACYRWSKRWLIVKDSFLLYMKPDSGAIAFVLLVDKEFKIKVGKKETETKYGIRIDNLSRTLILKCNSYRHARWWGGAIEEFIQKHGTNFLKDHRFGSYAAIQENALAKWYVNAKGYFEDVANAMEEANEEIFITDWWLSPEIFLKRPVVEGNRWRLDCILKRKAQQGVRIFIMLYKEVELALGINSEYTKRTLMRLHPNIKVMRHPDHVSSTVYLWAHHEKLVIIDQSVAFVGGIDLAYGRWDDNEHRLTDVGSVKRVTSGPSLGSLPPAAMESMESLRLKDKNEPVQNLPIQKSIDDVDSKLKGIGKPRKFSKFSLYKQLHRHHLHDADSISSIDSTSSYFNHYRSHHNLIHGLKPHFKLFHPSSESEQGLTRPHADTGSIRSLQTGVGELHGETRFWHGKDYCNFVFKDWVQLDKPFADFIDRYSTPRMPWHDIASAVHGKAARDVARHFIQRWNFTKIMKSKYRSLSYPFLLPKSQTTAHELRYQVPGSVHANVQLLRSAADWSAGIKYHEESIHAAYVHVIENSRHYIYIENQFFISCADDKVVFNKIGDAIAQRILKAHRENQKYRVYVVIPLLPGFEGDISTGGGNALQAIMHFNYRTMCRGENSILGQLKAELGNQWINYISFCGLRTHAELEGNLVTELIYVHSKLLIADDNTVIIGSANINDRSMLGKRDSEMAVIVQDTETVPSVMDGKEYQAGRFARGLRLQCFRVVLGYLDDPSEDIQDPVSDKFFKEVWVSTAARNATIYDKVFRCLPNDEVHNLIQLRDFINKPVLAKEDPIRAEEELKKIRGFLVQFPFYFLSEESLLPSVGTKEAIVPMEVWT
Ubiquitin carboxyl-terminal hydrolase BAP1, sequence (Q92560 whole entry): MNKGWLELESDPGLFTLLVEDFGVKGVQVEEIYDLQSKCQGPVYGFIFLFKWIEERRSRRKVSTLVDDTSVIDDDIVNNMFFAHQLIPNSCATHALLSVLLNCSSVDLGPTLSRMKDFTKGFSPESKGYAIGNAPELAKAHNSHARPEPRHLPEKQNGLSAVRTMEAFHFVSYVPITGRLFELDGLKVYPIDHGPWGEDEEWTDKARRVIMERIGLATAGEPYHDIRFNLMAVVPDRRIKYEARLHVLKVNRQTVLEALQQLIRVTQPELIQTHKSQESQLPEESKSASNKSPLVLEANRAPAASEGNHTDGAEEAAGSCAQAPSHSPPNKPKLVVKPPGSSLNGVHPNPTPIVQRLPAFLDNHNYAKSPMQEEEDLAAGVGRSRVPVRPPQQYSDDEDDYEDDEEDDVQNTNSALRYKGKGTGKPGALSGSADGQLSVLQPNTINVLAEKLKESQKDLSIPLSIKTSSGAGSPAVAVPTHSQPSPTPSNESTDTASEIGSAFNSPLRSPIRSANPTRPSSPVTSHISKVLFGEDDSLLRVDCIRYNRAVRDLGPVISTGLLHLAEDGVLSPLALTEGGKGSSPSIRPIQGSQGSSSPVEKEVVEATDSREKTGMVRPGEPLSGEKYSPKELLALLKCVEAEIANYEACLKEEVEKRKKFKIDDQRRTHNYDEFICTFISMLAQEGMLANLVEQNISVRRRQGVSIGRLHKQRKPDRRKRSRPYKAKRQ
Phospholipase D2, sequence (O14939 whole entry): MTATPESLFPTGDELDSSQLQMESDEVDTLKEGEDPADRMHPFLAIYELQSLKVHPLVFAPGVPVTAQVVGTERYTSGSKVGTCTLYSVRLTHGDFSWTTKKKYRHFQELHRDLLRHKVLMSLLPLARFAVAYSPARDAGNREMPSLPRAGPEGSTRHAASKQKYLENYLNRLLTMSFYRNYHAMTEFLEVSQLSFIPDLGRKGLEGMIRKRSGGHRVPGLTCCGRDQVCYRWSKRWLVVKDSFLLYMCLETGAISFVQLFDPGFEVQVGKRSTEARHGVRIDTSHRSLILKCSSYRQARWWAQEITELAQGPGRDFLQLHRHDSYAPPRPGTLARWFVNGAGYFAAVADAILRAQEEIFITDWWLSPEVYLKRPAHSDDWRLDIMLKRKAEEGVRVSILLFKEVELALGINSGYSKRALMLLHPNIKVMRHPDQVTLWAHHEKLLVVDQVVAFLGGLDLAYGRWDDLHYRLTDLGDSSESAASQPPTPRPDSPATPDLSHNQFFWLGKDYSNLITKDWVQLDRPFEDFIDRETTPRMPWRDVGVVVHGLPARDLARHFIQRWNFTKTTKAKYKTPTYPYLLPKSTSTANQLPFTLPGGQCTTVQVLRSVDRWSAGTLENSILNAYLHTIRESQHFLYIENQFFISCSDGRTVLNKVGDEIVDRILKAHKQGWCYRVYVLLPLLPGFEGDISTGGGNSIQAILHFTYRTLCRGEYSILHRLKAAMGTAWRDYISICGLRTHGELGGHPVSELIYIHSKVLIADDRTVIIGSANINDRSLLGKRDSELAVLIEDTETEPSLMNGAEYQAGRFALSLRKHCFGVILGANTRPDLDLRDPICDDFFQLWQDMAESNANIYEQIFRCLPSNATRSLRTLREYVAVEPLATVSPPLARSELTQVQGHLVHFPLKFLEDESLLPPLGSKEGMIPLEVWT
E3 ubiquitin-protein ligase Mdm2, sequence (Q00987 whole entry): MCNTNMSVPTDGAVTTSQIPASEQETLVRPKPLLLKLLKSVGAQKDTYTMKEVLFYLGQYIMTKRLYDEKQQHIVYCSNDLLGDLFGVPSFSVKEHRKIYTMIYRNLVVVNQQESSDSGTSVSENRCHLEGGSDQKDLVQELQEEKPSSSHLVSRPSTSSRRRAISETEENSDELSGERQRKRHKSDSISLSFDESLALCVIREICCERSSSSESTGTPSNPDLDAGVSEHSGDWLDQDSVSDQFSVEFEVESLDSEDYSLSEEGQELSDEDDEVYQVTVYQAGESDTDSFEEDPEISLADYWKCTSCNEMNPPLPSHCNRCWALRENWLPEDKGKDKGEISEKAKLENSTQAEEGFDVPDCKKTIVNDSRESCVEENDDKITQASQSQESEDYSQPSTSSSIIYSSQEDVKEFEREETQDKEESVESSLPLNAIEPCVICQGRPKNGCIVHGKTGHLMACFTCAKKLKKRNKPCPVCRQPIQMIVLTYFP

Compound: O=C(c1ccco1)[C@@H]1[C@@H]2C(=O)N(c3ccccc3)C(=O)[C@@H]2C2c3ccccc3C=CN21 (some centres not stated)
- EC50 [1]: 39.1 µM (active)
- IC50 [2]: 23.4 µM (active)
- EC50 [3]: 34.9 µM (active)

Compound: Cc1ccc(C=C2C(Cl)=C(Cl)C(Cl)=C2Cl)cc1
- EC50 [4]: 0.78 µM (active)
- EC50 (BJ [5]): 5.3 µM (inconclusive)
- EC50 (BJ [6]): 6.03 µM (inconclusive)
- EC50 [7]: 5.03 µM (inconclusive)
- AC50 [8]: > 380 µM (inactive)
- EC50 (Protein RecA): 5.66 µM (active)

Compound: Cc1cc(-c2ccccc2)nc(Oc2ccc(C(C)(C)C)cc2)c1S(C)(=O)=O
- IC50 [9]: > 50 µM (not active)
- CC50 [10]: > 40 µM (active)

Compound: Cc1cc(NC(=O)c2ccc3c(c2)C(=O)N(Cc2cccnc2)C3=O)no1
- IC50 [11]: > 100 µM (not active)
- IC50 [9]: 13.7 µM (not active)

Compound: N#C[C@@H]1[C@H](c2ccc(C#Cc3ccccc3F)cc2)[C@H](CO)N1C(=O)C1CCCC1
- AC50 [12]: 3.48 µM (active)
- AC50 [13]: > 39 µM (inactive)

Compound: CC(C)Nc1nc(-c2ccccc2)nc2ccccc12
- IC50 [14]: 15 µM (active)
- IC50 [15]: 35.8 µM (inactive)

Compound: O=C(NCCN1CCC2(CC1)C(=O)NCN2Cc1ccccc1F)c1ccc2ccccc2c1
- IC50 (Phospholipase D2): 0.2 µM (active)
- IC50 (Phospholipase D1): 4.59 µM (active)

Compound: O=C(c1ccccc1F)N1CC(=O)N2[C@H](C1)[C@@H](c1ccc(-c3cccnc3)cc1)[C@@H]2CO
- AC50 [16]: 0.0369 µM (active)
- AC50 [12]: < 0.3 µM (active)
- AC50 [17]: 0.0331 µM (active)
- AC50 [18]: 0.00824 µM (active)
- AC50 [19]: 0.0146 µM (active)

Compound: CCCCCCCCCCCCCCNCCO
- IC50 [20]: > 20 µM (inactive)
- IC50 [21]: 13.6 µM (inactive)

Compound: O=C(/C=C/c1ccc(F)cc1)N1CCN(S(=O)(=O)c2ccc(Cl)cc2)CC1
- IC50 [22]: 0.00548 µM (active)
